Results from patent publication US9451909B2, “System and method for detecting amyloid proteins” (Cognoptix, Inc., priority 2010, dated 2016).

Tests used:
[1] = target: T1, aggregated Aβ(1-42) peptide (Homo sapiens, UniProt P05067); assay: In vitro fluorescence lifetime measurements of Compound #11 with aggregated Aβ peptide (SAPPHIRE II device); type: binding
T1 construct: Aggregated Aβ peptide was prepared by dissolving Aβ(1-42) in PBS pH 7.4
Description: (§1) In accordance with an embodiment of the invention, in vitro studies on aggregated Aβ peptides bound to Compound #11 were performed. Fluorescence lifetime measurements of Compound #11 with aggregated Aβ peptide were performed using a device in accordance with an embodiment of the invention. FIG. 8A is a fluorescence lifetime image showing Compound #11 and Compound #11 bound to aggregated Aβ peptide, with their corresponding fluorescence lifetime histograms shown in FIG. 8B, in accordance with an embodiment of the invention. By fitting the lifetime histograms, the decay rates are determined. […] An experimental description follows.
(§2) The purpose of this in vitro study was to identify the optical signature of the Compound #11 amyloid-binding compound, and to characterize its fluorescence properties when bound to aggregated Aβ peptide. […]
(§3) The Neuroptix SAPPHIRE II device (Neuroptix Corporation, Acton, Mass., U.S.A.) is a purpose built device for clinical studies in humans, which was adapted for in vitro measurements for this experiment. It employs a confocal scanning mechanism combined with fluorescence lifetime spectroscopy that allows differentiation of fluorophores. The device allows 1) scanning of the optical beam to specific locations in the anterior segments of the eye, such as the supranucleus and 2) identification of fluorescent fluorophores based on fluorescence lifetime measurements.
(§4) Aggregated Aβ peptide was prepared by dissolving Aβ(1-42) in PBS pH 7.4 to a final concentration of 100 μM. […] The solution was transferred to 5 mL vial and the fluorescence measurements were performed at 25° C.
(§5) The sample consisting of Compound #11 was placed in front of the Neuroptix SAPPHIRE II Device. Once the location of the scan in the sample was determined, a raster scan was performed to obtain fluorescence lifetime measurements. […] The shading that makes up most of the image background represents a lifetime decay of 1.4 nsec, which corresponds to that of the fluorescence amyloid-binding compound. […]

[2] = test system: aggregated Aβ(1-42) peptide; assay: as above; type: binding; settings: unbound; 4 μM Compound #11, PBS, 25° C.
Description: as §1, §2, §3, §4, §5

[3] = Ocular pharmacokinetics study, topical ointment, fluorescence lifetime and intensity measurements in the lens; type: in vivo, Dutch-belted rabbits
Description: Ocular pharmacokinetic investigation of dose response via topical administration of fluorescence amyloid-binding compound was performed in Dutch-belted rabbits. The rabbits were tested each day over a 4 day period using Compound #11 amyloid-binding compound in an ointment. Two animals were dosed in the right eye with Compound #11 (0.5%) in ointment form. One animal was untreated and used as control animal. The animals were dosed at specific time points for four days and tested with SAPPHIRE II system for fluorescence intensity and lifetime measurements at the beginning and end of each day.
All animals were dosed with Compound #11 via topical ocular application and tested in the right eye. Animals were anesthetized and manually held on a platform in front of the Neuroptix SAPPHIRE II device. Gross positioning was done by the animal handler, and fine tuning of the measurement location was done by the Neuroptix SAPPHIRE II operator. Once aligned, the SAPPHIRE II operator initiated the measurement sequence. Baseline measurements were made on the animals before dosing, and then at the beginning and end of each day (Table 1).
Fluorescence lifetime and intensity measurements were performed in the eye at the beginning and at the end of each day. The measurements entailed scanning the rabbit eye axially (z-scan) to obtain inter-ocular information and a planar scan (xy-scan) to perform lifetime decay measurements in a certain region of the eye, which is the lens nucleus in this case.
Once the location of interest was identified, Time Correlation Single Photon Counting (TCSPS) was initiated while performing the xy-scan. The fluorescence lifetime images were then obtained where the decay lifetime histogram was obtained for each pixel location. The calculated decay times were color coded in the fluorescence lifetime image. Each measurement was performed three times. The frequency count of photons of specific decay rates were calculated from the decay rates frequency that of the Compound #11 signature obtained in the xy-scan and averaged over the three measurements. […] The device was specifically designed for human use but the platform was slightly modified for holding the rabbits.
Group 1: Animals were anesthetized with subcutaneous injection of Dexdomitor (0.5 mg/kg), Ketamine (5 mg/kg). A ribbon of ointment approximately ½ inch long was then applied to the lower right eyelid of each animal in the test group three times a day for four days.

[4] = Fluorescence spectra and fluorescence lifetime histogram of Compound #11; type: physicochemical
Source text: In an embodiment according to the invention, the light source may be configured to emit light of an appropriate wavelength for a peak region of a fluorescent excitation spectrum for the amyloid-binding compound bound to the amyloid protein in the eye, and the optical unit may be configured to detect light of an appropriate wavelength for a peak region of a fluorescent emission spectrum for the amyloid-binding compound bound to the amyloid protein in the eye. For example, where the amyloid-binding compound is Compound #11, the excitation spectrum has a peak of about 470 nm, and the light source may be configured to emit light within plus or minus about 20 nm of the peak of about 470 nm, such as within plus or minus 5 nm, plus or minus 10 nm, plus or minus 15 nm or plus or minus 20 nm of 470 nm. Further, the emission spectrum for Compound #11 has a peak of about 580 nm, and the optical unit may be configured to detect light within plus or minus about 20 nm of the peak of about 580 nm, such as within plus or minus 5 nm, plus or minus 10 nm, plus or minus 15 nm or plus or minus 20 nm of 580 nm. In general, there is typically a shift between the peak of the excitation spectrum and the peak of the emission spectrum of a fluorescent compound. […] For example, an emission spectrum having a peak greater than about 500 nm is advantageous for distinguishing from the natural autofluorescence of the eye. […] FIG. 12 is an emission spectrum of the fluorescent amyloid-binding compound Compound #11 when excited at 470 nm, in accordance with an embodiment of the invention. Other excitation and emission spectra that may be used will be apparent to those of skill in the art based on the foregoing.
A fluorescent histogram of the fluorescent amyloid-binding compound Compound #11 is shown in FIG. 6, obtained by a device in accordance with an embodiment of the invention. Single exponential fitting results in a lifetime decay rate of 2 nsec.

[5] = target: aggregated beta-amyloid (Aβ) peptide (Homo sapiens, UniProt P05067); settings: cited from earlier work
Sequence of aggregated beta-amyloid (Aβ) peptide (P05067 672-713 limits assumed): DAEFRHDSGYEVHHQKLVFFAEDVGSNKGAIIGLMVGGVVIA

T1 sequence (P05067 672-713): as the sequence (P05067 672-713 limits assumed) above

difference in fluorescence lifetime, bound vs unbound ([1]; Compound #11 vs Compound #11 bound to aggregated Aβ peptide): 0.85 nsec
fluorescence lifetime decay (time decay rate) of compound bound to aggregated Aβ peptide ([1]; bound to aggregated Aβ(1-42) 5 μM, 4 μM Compound #11, 25° C.): 2.25 nsec
fluorescence lifetime decay (time decay rate) of unbound compound [2]: 1.4 nsec
fluorescence signal after repetitive topical administration ([3]; 5 mg/g in ointment form, three times a day for four days): Detectable fluorescence signal
decay rate in lifetime image of the lens (xy-scan) ([3]; animal 1003, end of fourth day): 2 nsec
change of fluorescence in the lens nucleus over four days ([3]; measured at beginning and end of each day, 4 days, rabbits 1002 and 1003): increase of Compound #11 fluorescence
time of stay in the lens nucleus ([3]; repetitive topical administration): at least 12 hours
accumulation in the lens nucleus ([3]; repetitive topical administration, after several hours of application): tended to accumulate in the nucleus
excitation spectrum peak [4]: about 470 nm
emission spectrum peak ([4]; excited at 470 nm): about 580 nm
lifetime decay rate ([4]; single exponential fitting of fluorescent histogram (FIG. 6)): 2 nsec
SMILES: COCCOCCOCCOC(=O)/C(C#N)=C/c1ccc2cc(N3CCCCC3)ccc2c1 [Compound #11, (E)-2-(2-(2-methoxyethoxy)ethoxy)ethyl-2-cyano-3-(6-(piperidin-1-yl)naphthalen-2-yl)acrylate]
penetration of the cornea and detection in the lens ([3]; topical ocular, rabbit eyes): penetrate the cornea and be detected by the device in the lens
binding to aggregated beta-amyloid (Aβ) peptide [5]: has been shown to bind
